# Data reported in US20190046490A1, “METHODS OF TREATING LACTOSE INTOLERANCE” (Nogra Pharma Limited, priority 2016, published 2019).
# Values joined by “and” are separate entries in the source; they are usually repeats but may differ in a detail not shown here. Equal values may be shown once.
# System: LCT gene
# Experiment: Transcriptome microarray analysis of LCT mRNA expression in Caco-2 cells treated with PPARγ modulators
# Assay type: cell-based, human
# Conditions: vs unstimulated cells
# Procedure: Caco-2 (colonic adenocarcinoma) cells were grown in Dulbecco's Modified Eagle's Medium (DMEM, Invitrogen, Life Technologies, Cergy-Pontoise, France) supplemented with 20% foetal calf serum (FCS, Dutscher, Brumath, France), 1% penicillin-streptomycin (5 ml/l) (Invitrogen, Life technologies) and 1% non-essential amino acids (5 ml/l) (Invitrogen, Life technologies). All cell lines were cultured as confluent monolayers at 37° C. in a controlled, 5% CO2 atmosphere.
# For cell stimulations, 1×10^6 cells per well were seeded in 6-well plates. Cells were serum deprived for 16 hours prior to stimulation in order to synchronize the cells. Cells were treated with GED (Nogra Pharma Ltd, Ireland), pioglitazone (1 μM, Sigma-Aldrich) or CLA (various concentrations, Sigma-Aldrich). When necessary, the DMSO vehicle (Sigma-Aldrich) was used as control. After 24 hours of stimulation, cells were washed three times with sterile PBS before RNA extraction. Cell stimulations were performed in 4 replicates for microarray analysis and in 3, 4 or 6 replicates for other stimulations.
# Cells were lysed with lysis buffer (RA1, Macherey-Nagel) containing 1% β-mercaptoethanol. Total RNA was extracted with a Nucleospin RNA kit (Macherey-Nagel, Hoerdt, France). After RNAse inactivation, total RNA was cleaned of genomic DNA traces by DNAse treatment and eluted in RNAse-free, DEPC-water. The purity of the RNA was evaluated by UV spectroscopy on a Nanodrop system (Nyxor Biotech, Paris, France) from 220 to 350 nm. Before microarray experiments, RNAs were also profiled on an Agilent 2100 bioanalyzer. One μg of total RNA with a minimum concentration of 50 ng/μl was used in the microarray and qRT-PCR analysis.
# Dual-colour gene expression microarrays were used to compare the cRNA from the samples. 44,000 genes were screened. The RNAs from the samples were first reverse-transcribed into cDNA (Affinity-Script RT, Agilent), which were then used as the substrate for the synthesis and amplification of cRNA by T7 RNA polymerase in the presence of cyanine 3-CTP for the CTL sample (green fluorescence) and cyanine 5-CTP for the PPAR-γ y modulator sample (red fluorescence). The two-labelled cRNAs were mixed, hybridized on the same array (G4851A Agilent 8×44K) and then scanned (with an Agilent G2505B scanner). Fluorescence was visualized after laser excitation and the relative intensities of the two fluorophores were expressed as a ratio, in order to yield the over- or under-expression status of each gene (using GeneSpring software (Agilent)). This analysis was performed for each PPAR-γ modulator.
smiles,measurement,setting,value
"COC(Cc1ccc(N)cc1)C(=O)O (centres unmarked) [GED, 3-(4′-aminophenyl)2-methoxypropionic acid]",Fold Lactase RNA,1 mM,5.28 fold and 5.29 fold
same,Fold Lactase RNA,30 mM,8.28 fold
